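Growth conditions: 96-well plates. Treatment: test compound, 48 hours, 5 concentrations. Analysis: linear interpolation between bracketing concentrations; unreached endpoints set to highest concentration. The concentration for full growth arrest is given as TGI.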
Legend:
Assay in all cases: inhibition of tumour cell growth, NCI panel, 48 h
HS 578T breast = tested on: HS 578T breast
M14 melanoma = tested on: M14 melanoma
LOX IMVI melanoma = tested on: LOX IMVI melanoma
OVCAR-4 ovarian = tested on: OVCAR-4 ovarian
SR leukemia = tested on: SR leukemia
NCI/ADR-RES ovarian = tested on: NCI/ADR-RES ovarian
TK-10 renal = tested on: TK-10 renal
SF-268 CNS = tested on: SF-268 CNS
UACC-62 melanoma = tested on: UACC-62 melanoma
OVCAR-5 ovarian = tested on: OVCAR-5 ovarian
K-562 leukemia = tested on: K-562 leukemia
SNB-75 CNS = tested on: SNB-75 CNS
MOLT-4 leukemia = tested on: MOLT-4 leukemia
786-0 renal = tested on: 786-0 renal
HL-60(TB) leukemia = tested on: HL-60(TB) leukemia
SF-539 CNS = tested on: SF-539 CNS
DU-145 prostate = tested on: DU-145 prostate
HT29 colon = tested on: HT29 colon
OVCAR-8 ovarian = tested on: OVCAR-8 ovarian

SMILES	TGI (HS 578T breast)	TGI (M14 melanoma)	TGI (LOX IMVI melanoma)	TGI (OVCAR-4 ovarian)	TGI (SR leukemia)	TGI (NCI/ADR-RES ovarian)	TGI (TK-10 renal)	TGI (SF-268 CNS)	TGI (UACC-62 melanoma)	TGI (OVCAR-5 ovarian)	TGI (K-562 leukemia)	TGI (SNB-75 CNS)	TGI (MOLT-4 leukemia)	TGI (786-0 renal)	TGI (HL-60(TB) leukemia)	TGI (SF-539 CNS)	TGI (DU-145 prostate)	TGI (HT29 colon)	TGI (OVCAR-8 ovarian)
Nc1cc2c3c(cccc3c1)C(=O)N(c1ccc(OCCN3CCCCC3)cc1)C2=O	63.4 µM	32.3 µM	35.4 µM	35.7 µM	36.6 µM	40.9 µM	31.3 µM	37.7 µM	36.6 µM	44 µM	29.8 µM	30.6 µM	35.7 µM	43.3 µM	26.5 µM	27.9 µM	33.5 µM	31.9 µM	36.4 µM
CCOC(=O)C(NC(=O)c1ccccc1)(Nc1ccc(S(=O)(=O)Nc2nc(C)cc(C)n2)cc1)C(F)(F)F (stereo not drawn)	> 100 µM	> 100 µM	> 100 µM	> 100 µM	> 100 µM	> 100 µM	> 100 µM	> 100 µM	> 100 µM	> 100 µM	> 100 µM	> 100 µM	> 100 µM	> 100 µM	> 100 µM	> 100 µM	> 100 µM	> 100 µM	> 100 µM
O=S(=O)(N=S(c1ccc(Cl)cc1)c1ccc(Cl)cc1)c1ccccc1	> 100 µM	> 100 µM	> 100 µM	> 100 µM	> 100 µM	> 100 µM	> 100 µM	> 100 µM	> 100 µM	> 100 µM	> 100 µM	> 100 µM	> 100 µM	> 100 µM	> 100 µM	> 100 µM	> 100 µM	> 100 µM	> 100 µM
COC(=O)C(=O)c1c2ccccc2n2ccc3c4ccccc4[nH]c3c12	> 10 µM	> 10 µM	> 10 µM	> 10 µM	> 10 µM	> 10 µM	> 10 µM	> 10 µM	> 10 µM	> 10 µM	> 10 µM	> 10 µM	> 10 µM	> 10 µM	> 10 µM	> 10 µM	> 10 µM	> 10 µM	> 10 µM
CC1(C)C=C(/C=N/Nc2ccc([N+](=O)[O-])cc2)C(C#N)=C(O)C1(C#N)C#N	> 100 µM	> 100 µM	> 100 µM	> 100 µM	> 100 µM	> 100 µM	> 100 µM	> 100 µM	> 100 µM	> 100 µM	> 100 µM	> 100 µM	> 100 µM	> 100 µM	> 100 µM	> 100 µM	> 100 µM	> 100 µM	> 100 µM
CC(C)[Si](OC1=C(C(=O)Nc2ccccc2Cl)CCCCC1)(C(C)C)C(C)C	> 100 µM	> 100 µM	> 100 µM	> 100 µM	> 100 µM	> 100 µM	> 100 µM	> 100 µM	> 100 µM	> 100 µM	> 100 µM	> 100 µM	> 100 µM	> 100 µM	13.4 µM	> 100 µM	> 100 µM	> 100 µM	> 100 µM
Cc1ccc(S(=O)(=O)OC2=C/C(=N\c3onc(C)c3C)c3ccccc3C2=O)cc1	> 100 µM	> 100 µM	37.9 µM	29.9 µM	> 100 µM	77.1 µM	92.7 µM	77.5 µM	57.7 µM	42.1 µM	18.9 µM	> 100 µM	24.2 µM	> 100 µM	> 100 µM	79 µM	> 100 µM	> 100 µM	36.8 µM
O=C(O)C1(C(=O)O)CC1(C(=O)O)C(=O)O	> 100 µM	> 100 µM	> 100 µM	> 100 µM	> 100 µM	> 100 µM	> 100 µM	> 100 µM	> 100 µM	> 100 µM	> 100 µM	> 100 µM	> 100 µM	> 100 µM	> 100 µM	> 100 µM	> 100 µM	> 100 µM	> 100 µM
COc1ccccc1C(C1=C(O)COC1=O)c1cc2c(cc1OC(C)=O)OCO2 (stereo not drawn)	> 100 µM	> 100 µM	> 100 µM	> 100 µM	> 100 µM	> 100 µM	> 100 µM	> 100 µM	> 100 µM	> 100 µM	> 100 µM	> 100 µM	> 100 µM	> 100 µM	> 100 µM	> 100 µM	> 100 µM	> 100 µM	> 100 µM
CC(=O)CCNc1ccc(-c2cc(-c3ccc(N(C)C)cc3)nc3ccc4ccccc4c23)cc1	> 100 µM	> 88.8 µM	> 100 µM	> 100 µM	> 100 µM	> 100 µM	> 100 µM	> 100 µM	> 100 µM	> 100 µM	> 100 µM	> 100 µM	> 100 µM	> 100 µM	84.4 µM	> 100 µM	> 100 µM	> 100 µM	> 100 µM
O=c1c2cc([N+](=O)[O-])ccc2n(Cc2ccccc2)n1Cc1ccccc1	> 31.6 µM	20.7 µM	> 31.6 µM	> 31.6 µM	> 31.6 µM	20.3 µM	> 31.6 µM	> 31.6 µM	21.4 µM	> 31.6 µM	> 31.6 µM	> 31.6 µM	> 31.6 µM	> 31.6 µM	22.7 µM	> 31.6 µM	> 31.6 µM	> 31.6 µM	22.4 µM
NS(=O)(=O)c1ccc(NNc2c3ccccc3nc3ccccc23)cc1	23.8 µM	15.9 µM	14.5 µM	17.2 µM	21.4 µM	24.5 µM	26.4 µM	17.7 µM	17.2 µM	17.5 µM	19.9 µM	21.9 µM	19.2 µM	17.4 µM	19.9 µM	17.2 µM	23.6 µM	13.6 µM	16.6 µM

— PubChem BioAssay (NCI)
